Source: US20050009005A1, “Methods of using quantitative lipid metabolome data” (Lipomics Technologies, Inc., priority 2001, published 2005)

Tested on: de novo fatty acid synthesis
Experiment: Lipid metabolite profile of plasma, heart, liver and inguinal adipose of CL316,243-treated mice (trial 2; Tables 7 and 8)
Assay type: in vivo
Details: for Total n9 / 14:0 / 16:0 / 16:1n7 / 18:0 / 18:1n7 / 18:1n9 / Saturates / Total n7 / Total nMole of FA: mean
From the text: It is understood that the described methods can be used to analyze lipid metabolites from other subjects, including particularly animals other than mice.
Mouse tissue and plasma samples were a generous donation to Lipomics Technologies, Inc., from Dr. Edward Leiter of the Jackson Laboratory (Bar Harbor, Me.). Samples included the plasma, heart, liver and inguinal adipose of mice treated with pharmaceuticals or their corresponding controls.
In trial 2, male, inbred NON mice were fed a control with or without the presence of the β-3 adrenergic agonist CL316,243 for four weeks (at 0.001% CL316,243 by weight in the dietary chow).
In both studies, five treated and five control mice were used. Following the treatments and the killing of the mice, tissues and plasma were taken, chilled to −80 ° C. and shipped to the analysis laboratory at Lipomics Technologies in a frozen state.
Tissue processing and lipid extraction, including provision of internal standards, was carried out essentially as described in Watkins et al. (J. Lipid Res. Papers in Press, 10.1184/jlf.M200169-JLF200, published August 16, 2002), and in co-owned international application PCT/US02/21426, entitled “GENERATING, VIEWING, INTERPRETING, AND UTILIZING A QUANTITATIVE DATABASE OF METABOLITES,” both of which are incorporated in their entirety herein by reference.
The separation of lipid classes was performed in some instance by preparative thin-layer chromatography (TLC). To remove any residual metal or other damaging contaminants on the TLC plates, each plate was washed prior to use. Washing the plates is a three-step process that involves impregnating each plate with ethylenediamine tetraacetic acid (EDTA) and rinsing the plates once with methanol and once with chloroform. Each plate is first impregnated with 1 mM EDTA, pH 5.5, by ascending development using the method of Ruiz (J. Lipid Res. 38, 1482-1489, 1997). After each plate was completely developed, it was dried in air overnight. Once dry, each plate was developed in methanol, dried, and developed in chloroform in the same direction as the development with EDTA. The washed plates were then dried in air. Just prior to use, each plate was activated by heating to 110° C. for 10 minutes.
To prepare the TLC chamber for chromatography, Whatman (Clifton, N.J.) filter paper was cut into 20×80-cm strips and wrapped around the inside wall of a 30×60×10-cm glass development chamber. One hundred milliliters of the appropriate mobile phase was added to the chamber, and the chambers were sealed and allowed to equilibrate. Chambers were considered equilibrated when the solvent front had completely ascended the filter paper. The mobile phase employed for the separation of phospholipid classes (lyso-phospholipids, sphingomyelin, phosphatidylcholine, phosphatidylserine, phosphatidylethanolamine and cardiolipin) was a modification of the solvent system described by Holub and Skeaf (“Nutritional regulation of cellular phosphatidylinositol,” in Methods in Enzymology, ed. Conn, P. M. (Academic Press, Inc., Orlando), pp. 234-243, 1987) consisting of chloroform/methanol/acetic acid/water (100:67:7:4, by volume).
For the separation of neutral lipid classes (free fatty acids, free sterols, triacylglycerides and cholesterol esters), a solvent system consisting of petroleum ether/diethyl ether/acetic acid (80:20:1, by volume) was used (Mangold, Thin Layer Chromatography—A Laboratory Handbook (Springer-Verlag, New York), 1969).
After the TLC plate was activated, the sample extracts were spotted onto the activated plate. As a general rule, samples were spotted at an estimated concentration such that no single lipid class was present at more than 25 jig per centimeter of plate width following chromatography. This ensured that the plate was not overloaded and minimized the risk of cross-contamination between lipid classes (cross-contamination is readily identified during sample analysis as each lipid class contains unique internal standards). […]

With C[C@H](Cc1ccc2c(c1)OC(C(=O)[O-])(C(=O)[O-])O2)NC[C@H](O)c1cccc(Cl)c1.[Na+].[Na+] [CL316,243] the “Total n9” value (Liver, lipid class PS/I) was 5.4 percentage of total fatty acids, the “14:0” value (Liver, lipid class TAG) was 1.1 percentage of total fatty acids and the “16:0” value (Liver, lipid class TAG) was 32.1 percentage of total fatty acids. The “16:1n7” value (Liver, lipid class TAG) was 3.2 percentage of total fatty acids, the “18:0” value (Liver, lipid class TAG) was 3.3 percentage of total fatty acids and the “18:1n7” value (Liver, lipid class TAG) was 2.9 percentage of total fatty acids. The “18:1n9” value (Liver, lipid class TAG) was 34.1 percentage of total fatty acids, the “14:0” value (Plasma, CE) was 21.2 nanomoles per gram and the “16:0” value (Plasma, CE) was 114.4 nanomoles per gram. For the same compound, the “16:1n7” value (Plasma, CE) was 84.9 nanomoles per gram, the “18:0” value (Plasma, CE) was 16.5 nanomoles per gram and the “18:1n7” value (Plasma, CE) was 13.5 nanomoles per gram. The “18:1n9” value (Plasma, CE) was 194.2 nanomoles per gram, the Saturates (Plasma, CE) was 162.9 nanomoles per gram and the “Total n7” value (Plasma, CE) was 98.4 nanomoles per gram. The “Total n9” value (Plasma, CE) was 198.7 nanomoles per gram, the “Total nMole of FA” value (Plasma, CE) was 2584.1 nanomoles per gram and the “14:0” value (Plasma, FFA) was 22.1 nanomoles per gram. For the same compound, the “16:0” value (Plasma, FFA) was 102.3 nanomoles per gram, the “16:1n7” value (Plasma, FFA) was 15.4 nanomoles per gram and the “18:0” value (Plasma, FFA) was 36.9 nanomoles per gram. For the same compound, the “18:1n7” value (Plasma, FFA) was 9.8 nanomoles per gram, the “18:1n9” value (Plasma, FFA) was 160.6 nanomoles per gram and the Saturates (Plasma, FFA) was 167.7 nanomoles per gram. The “Total n7” value (Plasma, FFA) was 25.2 nanomoles per gram, the “Total n9” value (Plasma, FFA) was 163.1 nanomoles per gram and the “Total nMole of FA” value (Plasma, FFA) was 424.7 nanomoles per gram. The “14:0” value (Plasma, LysoPC) was 2.9 nanomoles per gram, the “16:0” value (Plasma, LysoPC) was 241.6 nanomoles per gram and the “16:1n7” value (Plasma, LysoPC) was 4.8 nanomoles per gram. The “18:0” value (Plasma, LysoPC) was 127.4 nanomoles per gram, the “18:1n7” value (Plasma, LysoPC) was 6.9 nanomoles per gram and the “18:1n9” value (Plasma, LysoPC) was 47.5 nanomoles per gram. For the same compound, the Saturates (Plasma, LysoPC) was 381.9 nanomoles per gram, the “Total n7” value (Plasma, LysoPC) was 11.8 nanomoles per gram and the “Total n9” value (Plasma, LysoPC) was 49.4 nanomoles per gram. The “Total nMole of FA” value (Plasma, LysoPC) was 643.1 nanomoles per gram, the “14:0” value (Plasma, PC) was 5.5 nanomoles per gram and the “16:0” value (Plasma, PC) was 1121.4 nanomoles per gram. The “16:1n7” value (Plasma, PC) was 15.3 nanomoles per gram, the “18:0” value (Plasma, PC) was 670.9 nanomoles per gram and the “18:1n7” value (Plasma, PC) was 58.8 nanomoles per gram. The “18:1n9” value (Plasma, PC) was 309.6 nanomoles per gram, the Saturates (Plasma, PC) was 1820.6 nanomoles per gram and the “Total n7” value (Plasma, PC) was 74.0 nanomoles per gram. The “Total n9” value (Plasma, PC) was 320.0 nanomoles per gram, the “Total nMole of FA” value (Plasma, PC) was 1928.9 nanomoles per gram and the “14:0” value (Plasma, PE) was 4.1 nanomoles per gram. The “16:0” value (Plasma, PE) was 33.9 nanomoles per gram, the “16:1n7” value (Plasma, PE) was 3.3 nanomoles per gram and the “18:0” value (Plasma, PE) was 28.2 nanomoles per gram. The “18:1n7” value (Plasma, PE) was 2.5 nanomoles per gram, the “18:1n9” value (Plasma, PE) was 31.5 nanomoles per gram and the Saturates (Plasma, PE) was 74.0 nanomoles per gram. For the same compound, the “Total n7” value (Plasma, PE) was 5.8 nanomoles per gram, the “Total n9” value (Plasma, PE) was 33.4 nanomoles per gram and the “Total nMole of FA” value (Plasma, PE) was 106.7 nanomoles per gram. For the same compound, the “14:0” value (Plasma, PL) was 7.6 nanomoles per gram, the “16:0” value (Plasma, PL) was 1315.0 nanomoles per gram and the “16:1n7” value (Plasma, PL) was 20.3 nanomoles per gram. For the same compound, the “18:0” value (Plasma, PL) was 847.2 nanomoles per gram, the “18:1n7” value (Plasma, PL) was 69.7 nanomoles per gram and the “18:1n9” value (Plasma, PL) was 380.8 nanomoles per gram. The Saturates (Plasma, PL) was 2221.2 nanomoles per gram, the “Total n7” value (Plasma, PL) was 90.0 nanomoles per gram and the “Total n9” value (Plasma, PL) was 429.4 nanomoles per gram. For the same compound, the “Total nMole of FA” value (Plasma, PL) was 2464.5 nanomoles per gram, the “14:0” value (Plasma, TAG) was 17.6 nanomoles per gram and the “16:0” value (Plasma, TAG) was 219.3 nanomoles per gram. For the same compound, the “16:1n7” value (Plasma, TAG) was 33.1 nanomoles per gram, the “18:0” value (Plasma, TAG) was 45.7 nanomoles per gram and the “18:1n7” value (Plasma, TAG) was 23.7 nanomoles per gram. For the same compound, the “18:1n9” value (Plasma, TAG) was 268.3 nanomoles per gram, the Saturates (Plasma, TAG) was 295.4 nanomoles per gram and the “Total n7” value (Plasma, TAG) was 56.8 nanomoles per gram. The “Total n9” value (Plasma, TAG) was 276.2 nanomoles per gram, the “Total nMole of FA” value (Plasma, TAG) was 344.8 nanomoles per gram and the “14:0” value (Plasma, lipid class CE) was 0.8 percentage of total fatty acids. The “16:0” value (Plasma, lipid class CE) was 4.5 percentage of total fatty acids, the “16:1n7” value (Plasma, lipid class CE) was 3.2 percentage of total fatty acids and the “18:0” value (Plasma, lipid class CE) was 0.7 percentage of total fatty acids. For the same compound, the “18:1n7” value (Plasma, lipid class CE) was 0.5 percentage of total fatty acids, the “18:1n9” value (Plasma, lipid class CE) was 7.5 percentage of total fatty acids and the “14:0” value (Plasma, lipid class FFA) was 5.7 percentage of total fatty acids. The “16:0” value (Plasma, lipid class FFA) was 28.1 percentage of total fatty acids, the “16:1n7” value (Plasma, lipid class FFA) was 3.2 percentage of total fatty acids and the “18:0” value (Plasma, lipid class FFA) was 10.0 percentage of total fatty acids. For the same compound, the “18:1n7” value (Plasma, lipid class FFA) was 2.1 percentage of total fatty acids, the “18:1n9” value (Plasma, lipid class FFA) was 31.0 percentage of total fatty acids and the “14:0” value (Plasma, lipid class LY) was 0.5 percentage of total fatty acids. For the same compound, the “16:0” value (Plasma, lipid class LY) was 37.8 percentage of total fatty acids, the “16:1n7” value (Plasma, lipid class LY) was 0.7 percentage of total fatty acids and the “18:0” value (Plasma, lipid class LY) was 20.1 percentage of total fatty acids. For the same compound, the “18:1n7” value (Plasma, lipid class LY) was 1.0 percentage of total fatty acids, the “18:1n9” value (Plasma, lipid class LY) was 7.2 percentage of total fatty acids and the “14:0” value (Plasma, lipid class PC) was 0.1 percentage of total fatty acids. The “16:0” value (Plasma, lipid class PC) was 29.0 percentage of total fatty acids, the “16:1n7” value (Plasma, lipid class PC) was 0.4 percentage of total fatty acids and the “18:0” value (Plasma, lipid class PC) was 17.5 percentage of total fatty acids. The “18:1n7” value (Plasma, lipid class PC) was 1.5 percentage of total fatty acids, the “18:1n9” value (Plasma, lipid class PC) was 7.9 percentage of total fatty acids and the “14:0” value (Plasma, lipid class PE) was 1.9 percentage of total fatty acids. The “16:0” value (Plasma, lipid class PE) was 16.1 percentage of total fatty acids, the “16:1n7” value (Plasma, lipid class PE) was 1.4 percentage of total fatty acids and the “18:0” value (Plasma, lipid class PE) was 13.5 percentage of total fatty acids. The “18:1n7” value (Plasma, lipid class PE) was 1.1 percentage of total fatty acids, the “18:1n9” value (Plasma, lipid class PE) was 13.1 percentage of total fatty acids and the “14:0” value (Plasma, lipid class PL) was 0.2 percentage of total fatty acids. The “16:0” value (Plasma, lipid class PL) was 26.6 percentage of total fatty acids, the “16:1n7” value (Plasma, lipid class PL) was 0.4 percentage of total fatty acids and the “18:0” value (Plasma, lipid class PL) was 17.3 percentage of total fatty acids. The “18:1n7” value (Plasma, lipid class PL) was 1.4 percentage of total fatty acids, the “18:1n9” value (Plasma, lipid class PL) was 7.7 percentage of total fatty acids and the “14:0” value (Plasma, lipid class TAG) was 1.7 percentage of total fatty acids. For the same compound, the “16:0” value (Plasma, lipid class TAG) was 21.1 percentage of total fatty acids, the “16:1n7” value (Plasma, lipid class TAG) was 3.2 percentage of total fatty acids and the “18:0” value (Plasma, lipid class TAG) was 4.4 percentage of total fatty acids. The “18:1n7” value (Plasma, lipid class TAG) was 2.3 percentage of total fatty acids, the “18:1n9” value (Plasma, lipid class TAG) was 25.8 percentage of total fatty acids and the “palmitoleic acid concentrations in most lipid classes in heart, liver, adipose and plasma” value (male inbred NON mice, 0.001% CL316,243 in chow 4 weeks, vs controls (Tables 7 and 8)) was “substantial decrease”.
